Earlier results as cited in patent publication US20240398817A1, “CARDIO- AND RENOSAFE ANTIDIABETIC THERAPY” (priority 2018, published 2024).
Like-named read-outs stand apart in the source and are kept apart here.

Tests used:
Details in all cases: in vivo; cited from earlier work
[1] = test system: people with type 2 diabetes
[2] = test system: people with type 2 diabetes; remark: listed apart in the source
[3] = test system: people with type 2 diabetes; remark: listed apart in the source

Cn1c(=O)cc(N2CCC[C@@H](N)C2)n(Cc2ccccc2C#N)c1=O [alogliptin]
Incidence of hospitalization for heart failure versus placebo, in words [1]: numerically increased
Major adverse CV events compared with placebo, in words [1]: neutral effects

N#C[C@@H]1C[C@@H]2C[C@@H]2N1C(=O)[C@@H](N)C12CC3CC(CC(O)(C3)C1)C2 [saxagliptin]
Major adverse CV events compared with placebo, in words [2]: neutral effects

N[C@@H](CC(=O)N1CCn2c(nnc2C(F)(F)F)C1)Cc1cc(F)c(F)cc1F [sitagliptin]
Incidence of heart failure hospitalization versus placebo, in words [3]: no effect
Major adverse CV events compared with placebo, in words [3]: neutral effects
